Test results reported in patent publication US10160729B2, “Hsp70 modulators and methods for making and using the same” (Memorial Sloan Kettering Cancer Center, priority 2014, dated 2018).

What follows are molecules tested on MOLM-13 cells (assay: Caspase cleavage assay (Caspase3, 7 activation)). Conditions: Homo sapiens, 16 h treatment, caspase substrate Z-DEVD-R110, read-out: c* Concentration at which 50% of the maximum signal was achieved (caspase activation).
Format: cell-based
Method: Caspase3, 7 Activation. MOLM-13 cells (30,000 cells/well) were plated in black 96-well plates (Corning Cat. #3603) in 40 μL of RPMI media, and left in an incubator (37° C., 5% CO2) for up to 24 h. Cells were treated for 16 h with compounds or DMSO (control) at desired concentrations in 50 μL of media. Drugs were added in triplicate wells. Following exposure of cells to Hsp70 inhibitors, 50 μL of buffer containing 10 mM HEPES (pH 7.5), 2 mM EDTA, 0.1% CHAPS and the caspase substrate Z-DEVD-R110 at 25 μM was added to each well. Plates were incubated until the signal stabilized and then the fluorescence signal of each well was measured in an Analyst GT microplate reader. The percentage increase in apoptotic cells was calculated by comparison of the fluorescence reading obtained from treated versus control cells.

SMILES | EC50 [nM]
CN1CCN(c2ncc(Sc3ccc(C=O)o3)c(OCc3ccccc3)n2)CC1 [compound 29, 5-((4-(Benzyloxy)-2-(4-methylpiperazin-1-yl)pyrimidin-5-yl)thio)furan-2-carbaldehyde] | 400 to 1000
COc1cccc(COc2nc(N3CCN(C)C[C@H]3C)ncc2Sc2ccc(C(N)=O)cc2)c1 [compound 193, (R)-4-((2-(2,4-dimethylpiperazin-1-yl)-4-((3-methoxybenzyl)oxy)pyrimidin-5-yl)thio)benzamide] | ≥ 1200
CN1CCN(c2ncc(Sc3ccc(C=O)cc3)c(OCc3ccccc3)n2)CC1 [compound 45, 4-((4-(Benzyloxy)-2-(4-methylpiperazin-1-yl)pyrimidin-5-yl)thio)benzaldehyde] | 200 to 400
C=CC(=O)Nc1ccc(Sc2cnc(N3CCN(C)CC3)nc2OCc2ccccc2)cn1 [compound 56, N-(5-((4-(Benzyloxy)-2-(4-methylpiperazin-1-yl)pyrimidin-5-yl)thio)pyridin-2-yl)acrylamide] | ≥ 1200
CN1CCN(c2ncc(Sc3ccc(C(N)=O)c(Cl)c3)c(OCc3ccc(F)c(Cl)c3)n2)CC1 [compound 113, 2-Chloro-4-((4-((3-chloro-4-fluorobenzyl)oxy)-2-(4-methylpiperazin-1-yl)pyrimidin-5-yl)thio)benzamide] | < 200
CN1CCN(c2ncc(Sc3ccc(N)nc3)c(OCc3ccc(F)c(Cl)c3)n2)CC1 [compound 154, 5-((4-((3-Chloro-4-fluorobenzyl)oxy)-2-(4-methylpiperazin-1-yl)pyrimidin-5-yl)thio)pyridin-2-amine] | < 200
NC(=O)c1ccc(Sc2cnc(N3CCN(CC#CCO)CC3)nc2OCc2cccc(Cl)c2)cc1 [compound 379, 4-((4-((3-Chlorobenzyl)oxy)-2-(4-(4-hydroxybut-2-yn-1-yl)piperazin-1-yl)pyrimidin-5-yl)thio)benzamide] | < 200
CC(=O)c1ccc(Sc2cnc(N3CCN(C)CC3)nc2OCc2ccccc2)cc1 [compound 36, 1-(4-((4-(Benzyloxy)-2-(4-methylpiperazin-1-yl)pyrimidin-5-yl)thio)phenyl)ethanone] | 1000 to 1200
CN1CCN(c2ncc(Sc3ccc(C(N)=O)c(C(F)(F)F)c3)c(OCc3ccccc3)n2)CC1 [compound 70, 4-((4-(Benzyloxy)-2-(4-methylpiperazin-1-yl)pyrimidin-5-yl)thio)-2-(trifluoromethyl)benzamide] | < 200
COc1cccc(COc2nc(N3CCN(C(C)(C)C4CC4)CC3)ncc2Sc2ccc(C(N)=O)cc2)c1 [compound 313, 4-((2-(4-(2-Cyclopropylpropan-2-yl)piperazin-1-yl)-4-((3-methoxybenzyl)oxy)pyrimidin-5-yl)thio)benzamide] | ≥ 1200
CN(C)[C@@H]1CCN(c2ncc(Sc3ccc(C(N)=O)cc3)c(OCc3cccc(OC(F)(F)F)c3)n2)C1 [compound 205, (R)-4-((2-(3-(Dimethylamino)pyrrolidin-1-yl)-4-((3-(trifluoromethoxy)benzyl)oxy)pyrimidin-5-yl)thio)benzamide] | 400 to 1000
COc1cccc(COc2nc(N3CCN(CC#CCO)CC3)ncc2Sc2ccc(C(N)=O)cc2)c1 [compound 326, 4-((2-(4-(4-Hydroxybut-2-yn-1-yl)piperazin-1-yl)-4-((3-methoxybenzyl)oxy)pyrimidin-5-yl)thio)benzamide] | < 200
COc1ccc(COc2nc(N3CCN(C)CC3)ncc2Sc2ccc(C(N)=O)cc2)cc1 [compound 96, 4-((4-((4-Methoxybenzyl)oxy)-2-(4-methylpiperazin-1-yl)pyrimidin-5-yl)thio)benzamide] | 400 to 1000
COc1cccc(COc2nc(N3CC4CC3CN4C)ncc2Sc2ccc(C(N)=O)cc2)c1 (centres unmarked) [compound 195] | ≥ 1200
Cc1cc(Sc2cnc(N3CCN(C)CC3)nc2OCc2ccccc2)ccc1C(N)=O [compound 74, 4-((4-(Benzyloxy)-2-(4-methylpiperazin-1-yl)pyrimidin-5-yl)thio)-2-methylbenzamide] | 400 to 1000
COc1ncc(Sc2cnc(N3CCN(C)CC3)nc2OCc2ccccc2)cc1N [compound 63, 5-((4-(Benzyloxy)-2-(4-methylpiperazin-1-yl)pyrimidin-5-yl)thio)-2-methoxypyridin-3-amine] | ≥ 1200
COc1ccc(F)c(COc2nc(N3CCN(C)CC3)ncc2Sc2ccc(C(N)=O)c(Cl)c2)c1 [compound 109] | < 200
COc1cccc(COc2nc(N3CCN([C@H](C)C4CC4)CC3)ncc2Sc2ccc(C(N)=O)cc2)c1 [compound 317, (R)-4-((2-(4-(1-Cyclopropylethyl)piperazin-1-yl)-4-((3-methoxybenzyl)oxy)pyrimidin-5-yl)thio)benzamide] | ≥ 1200
CN1CCN(c2ncc(Sc3ccc(F)c(C(N)=O)c3)c(OCc3ccccc3)n2)CC1 [compound 68, 5-((4-(Benzyloxy)-2-(4-methylpiperazin-1-yl)pyrimidin-5-yl)thio)-2-fluorobenzamide] | 1000 to 1200
CN1CCN(c2ncc(Sc3ccc(C(N)=O)c(I)c3)c(OCc3ccccc3)n2)CC1 [compound 80, 4-((4-(Benzyloxy)-2-(4-methylpiperazin-1-yl)pyrimidin-5-yl)thio)-2-iodobenzamide] | 400 to 1000
CCc1cccc(COc2nc(N3CCN(C)CC3)ncc2Sc2ccc(C(N)=O)c(C(F)(F)F)c2)c1 [compound 333, 4-((4-((3-Ethylbenzyl)oxy)-2-(4-methylpiperazin-1-yl)pyrimidin-5-yl)thio)-2-(trifluoromethyl)benzamide] | 1000 to 1200
CN1CCN(c2ncc(Sc3ccc(C(N)=O)cc3)c(OCc3cccc(N=[N+]=[N-])c3)n2)CC1 [compound 101, 4-((4-((3-Azidobenzyl)oxy)-2-(4-methylpiperazin-1-yl)pyrimidin-5-yl)thio)benzamide] | < 200
CN1CCN(c2ncc(Sc3ccc(C(=O)NCN4CCCCC4)cc3)c(OCc3ccccc3)n2)CC1 [compound 93, 4-((4-(Benzyloxy)-2-(4-methylpiperazin-1-yl)pyrimidin-5-yl)thio)-N-(piperidin-1-ylmethyl)benzamide] | 1000 to 1200
C#CCN1CCN(c2ncc(Sc3ccc(C(N)=O)c(C(F)(F)F)c3)c(OCc3cccc(Cl)c3)n2)CC1 [compound 351, 4-((4-((3-Chlorobenzyl)oxy)-2-(4-(prop-2-yn-1-yl)piperazin-1-yl)pyrimidin-5-yl)thio)-2-(trifluoromethyl)benzamide] | 1000 to 1200
CN1CCN(c2ncc(Sc3ccc(N)nc3)c(OCc3cccc(C#N)c3)n2)CC1 [compound 152, 3-(((5-((6-Aminopyridin-3-yl)thio)-2-(4-methylpiperazin-1-yl)pyrimidin-4-yl)oxy)methyl)benzonitrile] | 200 to 400

Further lines, results first:

EC50 [nM] | SMILES
200 to 400 | CN1CCN(c2ncc(Sc3ccc(C(N)=O)cc3)c(OCc3ccc(F)cc3)n2)CC1 [100m, 4-((4-((4-Fluorobenzyl)oxy)-2-(4-methylpiperazin-1-yl)pyrimidin-5-yl)thio)benzamide]
< 200 | COc1cccc(COc2nc(N3CCN(CC4CC4)CC3)ncc2Sc2ccc(C(N)=O)cc2)c1 [190q, 4-((2-(4-(Cyclopropylmethyl)piperazin-1-yl)-4-((3-methoxybenzyl)oxy)pyrimidin-5-yl)thio)benzamide]
200 to 400 | C#CC(C)N1CCN(c2ncc(Sc3ccc(C(N)=O)cc3)c(OCc3cccc(OC)c3)n2)CC1 (centres unmarked) [190n, 4-((2-(4-(But-3-yn-2-yl)piperazin-1-yl)-4-((3-methoxybenzyl)oxy)pyrimidin-5-yl)thio)benzamide]
< 200 | CN1CCN(c2ncc(Sc3ccc(C(N)=O)cc3)c(OCc3cccc(N)c3)n2)CC1 [100x, 4-((4-((3-Aminobenzyl)oxy)-2-(4-methylpiperazin-1-yl)pyrimidin-5-yl)thio)benzamide]
400 to 1000 | CN(C)c1cccc(COc2nc(N3CCN(CCO)CC3)ncc2Sc2ccc(C(N)=O)cc2)c1 [185d, 4-((4-((3-(Dimethylamino)benzyl)oxy)-2-(4-(2-hydroxyethyl)piperazin-1-yl)pyrimidin-5-yl)thio)benzamide]
200 to 400 | CN1CCN(c2ncc(Sc3ccc(C(N)=O)cc3)c(OCc3cccc(N4CCCC4)c3)n2)CC1 [100b, 4-((2-(4-Methylpiperazin-1-yl)-4-((3-(pyrrolidin-1-yl)benzyl)oxy)pyrimidin-5-yl)thio)benzamide]
≥ 1200 | NC(=O)c1ccc(Sc2cnc(N3CCOCC3)nc2OCc2ccccc2)cc1 [179a]
200 to 400 | COc1cccc(COc2nc(N3CCN(C4COC4)CC3)ncc2Sc2ccc(C(N)=O)cc2)c1 [190r, 4-((4-((3-Methoxybenzyl)oxy)-2-(4-(oxetan-3-yl)piperazin-1-yl)pyrimidin-5-yl)thio)benzamide]
1000 to 1200 | CN(C)c1cccc(COc2nc(N3CCOCC3)ncc2Sc2ccc(C(N)=O)cc2)c1 [185a, 4-((4-((3-(Dimethylamino)benzyl)oxy)-2-morpholinopyrimidin-5-yl)thio)benzamide]
< 200 | C#CCCCCN1CCN(c2ncc(Sc3ccc(C(N)=O)cc3)c(OCc3cccc(N(C)C)c3)n2)CC1 [185e, 4-((4-((3-(Dimethylamino)benzyl)oxy)-2-(4-(hex-5-yn-1-yl)piperazin-1-yl)pyrimidin-5-yl)thio)benzamide]
400 to 1000 | CC(=O)c1cccc(COc2nc(N3CCN(C)CC3)ncc2Sc2ccc(C(N)=O)cc2)c1 [100q, 4-((4-((3-Acetylbenzyl)oxy)-2-(4-methylpiperazin-1-yl)pyrimidin-5-yl)thio)benzamide]
≥ 1200 | COc1cccc(COc2nc(N3CCCN(C)CC3)ncc2Sc2ccc(C(N)=O)cc2)c1 [190h]
≥ 1200 | CC(Oc1nc(N2CCN(C)CC2)ncc1Sc1ccc(C(N)=O)cc1)c1cccc(N(C)C)c1 (centres unmarked) [100d, 4-((4-(1-(3-(Dimethylamino)phenyl)ethoxy)-2-(4-methylpiperazin-1-yl)pyrimidin-5-yl)thio)benzamide]
